Laboratory results: US9309179B2 (FAB PHARMA S.A.S., priority 2006, dated 2016)
Converted amounts (≈) assume the structure as drawn. Where a name gives a salt, the structure may show the parent alone. Read-outs that look alike come from different tables or passages of the source.

Key:
E. coli CIP 76.24 = assay: MIC, broth microdilution; assay type: cell-based; conditions: Escherichia coli, read-out: MIC E. coli CIP 76.24
Method: (§1) The compounds of the present invention are useful antibacterial agents having a selective spectrum of activity in vitro against standard bacterial strains which are used to screen for activity against pathogenic bacteria. […] The activity is presented as Minimum Inhibitory Concentration (MIC) expressed in μg/ml.
(§2) Whole-cell antimicrobial activity was determined by broth microdilution method in microtiterplates. The compound was tested in serial 4-fold dilutions ranging from 0.06 to 64 mcg/mL. Test organisms were selected from the following laboratory strains: Staphylococcus aureus CIP 76.25, Staphylococcus aureus BAA39 MDR, Staphylococcus aureus NEM 14157 PeniR, Staphylococcus aureus CIP 54.146, Escherichia coli CIP 76.24. Bacteria were tested in Tryptic Soy (TS) or Mueller Hinton (MH) broth using an inoculum of 10^4 to 10^6 UFC/mL incubated at 37° C. for 20 h.
(§3) The minimum inhibitory concentration (MIC) was determined as the lowest concentration of compound at which no visible bacteria growth is observed (90% inhibition of absorbance of at […].)

S. aureus BAA39MDR = assay: MIC, broth microdilution; assay type: cell-based; conditions: Staphylococcus aureus, 20 h, read-out: MIC S. aureus BAA39MDR
Method: as §1, §2, §3

S. aureus CIP 76.25 = assay: MIC, broth microdilution; assay type: cell-based; conditions: Staphylococcus aureus, read-out: MIC S. aureus CIP 76.25
Method: as §1, §2, §3

S. aureus NEM14157 = assay: MIC, broth microdilution; assay type: cell-based; conditions: Staphylococcus aureus, read-out: MIC S. aureus NEM14157
Method: as §1, §2, §3

[1] = molecular target: T1, recombinant E. coli FabI enzyme (Escherichia coli, UniProt P0AEK4); assay: FabI inhibition, fluorescence-based NADH assay; assay type: biochemical
T1 construct: 6-His (C); made in house; host or cells: prokaryotic expression vector
Method: Compound inhibitory activity of FabI enzyme is measured in vitro by the IC50 determination using a fluorescent based assay.
The protein FabI from E. coli is prepared and purified using standard methods for recombinant protein expression after cloning of the gene in a prokaryotic expression vector.
The biochemical activity of the FabI enzyme is assessed using the following method.
The assay buffer “AB” contains 50 mM Hepes pH7.5, 100 μM Dithiothreitol, 0.006% Triton-X100. The following components are added in a black polystyrene Costar plate up to a final volume of 55 μL: 1.5 μL DMSO, or inhibitor dissolved in DMSO and 53.5 μL of a FabI/NADH/NAD+ mixture in AB. After 60 min of pre-incubation at room temperature, the reaction is started by addition of 5 μL of Crotonoyl-CoA to a final volume of 60 μL. This reaction mixture is then composed of 40 nM FabI (produced in house from E. coli, C-terminal 6-His tagged), 20 μM NADH (Biochemika), 10 μM NAD+ (Biochemika), 50 μM Crotonoyl-CoA (Biochemika) and compound at defined concentration. Fluorescence intensity of NADH (lex=360 nm, lem=520 nm) is measured immediately after Crotonoyl-CoA addition, and 2 hours later by a Fluostar Optima (BMG). Enzyme activity is proportional to the signal decrease from which inhibition percentages are derived. For IC50 determinations, the inhibitor is tested at 6 to 10 different concentrations, and the related inhibitions are fitted to a classical langmuir equilibrium model using XLFIT (IDBS).
In Vitro Inhibition of Recombinant E. coli FabI Enzyme by Selected Compounds of Formula (I).

[2] = CIP76, broth microdilution, 37° C., 20 h
[3] = NEM14157, broth microdilution, 37° C., 20 h
[4] = recombinant E. coli FabI 40 nM, 60 min pre-incubation, NADH fluorescence, read-out: IC50

T1 sequence (P0AEK4 whole entry): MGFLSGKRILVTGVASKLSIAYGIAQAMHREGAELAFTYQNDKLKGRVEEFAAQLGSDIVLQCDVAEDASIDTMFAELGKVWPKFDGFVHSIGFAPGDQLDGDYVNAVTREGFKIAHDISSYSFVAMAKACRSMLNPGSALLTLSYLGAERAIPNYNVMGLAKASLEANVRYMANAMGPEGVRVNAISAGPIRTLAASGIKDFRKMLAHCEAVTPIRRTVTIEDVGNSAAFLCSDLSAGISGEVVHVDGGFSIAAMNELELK

| Structure (SMILES) | MIC (E. coli CIP 76.24; [2]) [µg/mL] | MIC (S. aureus BAA39MDR; broth microdilution, 37° C.) [µg/mL] | MIC (S. aureus CIP 76.25; [2]) [µg/mL] | MIC (S. aureus NEM14157; [3]) [µg/mL] | further results |
| --- | --- | --- | --- | --- | --- |
| CCCc1ccc(Oc2nc(Cl)ccc2N)c(O)c1 [Example 1, 2-[(3-amino-6-chloropyridin-2-yl)oxy]-5-propylphenol] | 16 (≈ 57.4 µM) | 1 (≈ 3.59 µM) | 1 (≈ 3.59 µM) | 0.25 (≈ 0.897 µM) | – |
| CCc1ccc(Oc2cccc(F)n2)c(O)c1 [Example 3, 5-ethyl-2-[(6-fluoropyridin-2-yl)oxy]phenol] | 4 (≈ 17.1 µM) | 0.25 (≈ 1.07 µM) | 0.25 (≈ 1.07 µM) | 0.25 (≈ 1.07 µM) | – |
| CCCc1ccc(Oc2cccc(F)n2)c(O)c1 [Example 5, 2-[(6-fluoropyridin-2-yl)oxy]-5-propylphenol] | 4 (≈ 16.2 µM) | 0.25 (≈ 1.01 µM) | 0.25 (≈ 1.01 µM) | 0.25 (≈ 1.01 µM) | IC50 [1, 4]: 0.97 µM |
| CCCc1ccc(Oc2cccc(Cl)n2)c(O)c1 [Example 6, 2-[(6-chloropyridin-2-yl)oxy]-5-propylphenol] | 16 (≈ 60.7 µM) | 1 (≈ 3.79 µM) | 1 (≈ 3.79 µM) | 1 (≈ 3.79 µM) | – |
| CCCc1ccc(Oc2cccc(N)n2)c(O)c1 [Example 7, 2-[(6-aminopyridin-2-yl)oxy]-5-propylphenol] | > 16 | – | 2 (≈ 8.19 µM) | – | – |
| CCCc1ccc(Oc2ccc(OC)cc2)c(O)c1 [Example 16, 2-(4-methoxyphenoxy)-5-propylphenol] | 4 (≈ 15.5 µM) | 0.25 (≈ 0.968 µM) | 0.25 (≈ 0.968 µM) | 0.25 (≈ 0.968 µM) | IC50 [1]: 0.51 µM |
| CCCc1ccc(Oc2cc(F)cc(F)n2)c(O)c1 [Example 25A, 2-[(4,6-difluoropyridin-2-yl)oxy]-5-propylphenol] | 16 (≈ 60.3 µM) | – | 0.25 (≈ 0.942 µM) | – | – |
| CCCc1ccc(Oc2cc(F)nc(F)c2)c(O)c1 [Example 25B, 2-[(2,6-difluoropyridin-4-yl)oxy]-5-propylphenol] | 4 (≈ 15.1 µM) | 0.062 (≈ 0.234 µM) | 0.062 (≈ 0.234 µM) | 0.062 (≈ 0.234 µM) | IC50 [1]: 0.57 µM |
| Oc1cc(CC(F)(F)F)ccc1Oc1cccc(F)n1 [Example 27, 2-[(6-fluoropyridin-2-yl)oxy]-5-(2,2,2-trifluoroethyl)phenol] | 4 (≈ 13.9 µM) | 0.25 (≈ 0.87 µM) | 0.25 (≈ 0.87 µM) | 0.25 (≈ 0.87 µM) | IC50 [1, 4]: 0.47 µM |
| Oc1cc(C(F)=C(F)F)ccc1Oc1cccc(F)n1 [Example 28, 2-[(6-fluoropyridin-2-yl)oxy]-5-(trifluorovinyl) phenol] | – | – | – | – | IC50 [1, 4]: 0.85 µM |
| CCc1ccc(Oc2ccc(C(C)=O)cc2F)c(O)c1 [Example 29, 1-[4-(4-ethyl-2-hydroxyphenoxy)-3-fluorophenyl]ethanone] | 1 (≈ 3.65 µM) | 0.062 (≈ 0.226 µM) | 0.062 (≈ 0.226 µM) | 0.062 (≈ 0.226 µM) | IC50 [1]: 0.15 µM |
| Oc1cc(Cn2cncn2)ccc1Oc1cccc(F)n1 [Example 32, 2-[(6-fluoropyridin-2-yl)oxy]-5-(1H-1,2,4-triazol-1-ylmethyl)phenol] | 16 (≈ 55.9 µM) | – | 4 (≈ 14 µM) | – | – |
| CCc1ccc(Oc2ccccc2N)c(O)c1 [Example 34, 2-(2-aminophenoxy)-5-ethylphenol] | 1 (≈ 4.36 µM) | 0.25 (≈ 1.09 µM) | 0.25 (≈ 1.09 µM) | 0.25 (≈ 1.09 µM) | – |
| CCc1ccc(Oc2ccc(NCCCCO)cc2F)c(O)c1 [Example 37, 5-ethyl-2-{2-fluoro-4-[(4-hydroxybutyl)amino]phenoxy}phenol] | 4 (≈ 12.5 µM) | 0.25 (≈ 0.783 µM) | 0.062 (≈ 0.194 µM) | 0.25 (≈ 0.783 µM) | IC50 [1]: 0.41 µM |
| CCc1ccc(Oc2ccc(OCCCN3C(=O)c4ccccc4C3=O)cc2F)c(O)c1 [Example 38, 2-{3-[4-(4-Ethyl-2-hydroxy-phenoxy)-3-fluoro-phenoxy]-propyl}-isoindole-1,3-dione] | 4 (≈ 9.19 µM) | 0.25 (≈ 0.574 µM) | 0.062 (≈ 0.142 µM) | 1 (≈ 2.3 µM) | – |
| CCc1ccc(Oc2ccc(OCCCN)cc2F)c(O)c1 [Example 39, 2-[4-(3-aminopropoxy)-2-fluorophenoxy]-5-ethyl phenol] | – | – | – | – | MIC (E. coli CIP 76.24; CIP76, 20 h): 16 µg/mL (≈ 52.4 µM); MIC (S. aureus BAA39MDR): 1 µg/mL (≈ 3.27 µM); MIC (S. aureus CIP 76.25; CIP76, 20 h): 1 µg/mL (≈ 3.27 µM); MIC (S. aureus NEM14157; NEM14157, 20 h): 1 µg/mL (≈ 3.27 µM) |
| CCc1ccc(Oc2ccc(S(C)(=O)=O)cc2)c(O)c1 [Example 47, 5-ethyl-2-[4-(methylsulfonyl)phenoxy]phenol] | 16 (≈ 54.7 µM) | – | 0.25 (≈ 0.855 µM) | – | – |

| Structure (SMILES) | MIC (E. coli CIP 76.24; [2]) [µg/mL] | MIC (S. aureus BAA39MDR; broth microdilution, 37° C.) [µg/mL] | MIC (S. aureus CIP 76.25; [2]) [µg/mL] | MIC (S. aureus NEM14157; [3]) [µg/mL] | further results |
| --- | --- | --- | --- | --- | --- |
| CCc1ccc(Oc2cc(F)ccc2N)c(O)c1 [Example 50, 2-(2-amino-5-fluorophenoxy)-5-ethylphenol] | – | – | – | – | IC50 [1, 4]: 0.3 µM |
| CCc1ccc(Oc2ccc(NS(=O)(=O)C3CC3)cc2F)c(O)c1 [Example 52, N-[4-(4-ethyl-2-hydroxyphenoxy)-3-fluorophenyl]cyclopropane sulfonamide] | 16 (≈ 45.5 µM) | – | 1 (≈ 2.85 µM) | – | – |
| CCCc1ccc(Oc2cccnc2N)c(O)c1 [Example 55, 2-(2-Aminopyridin-3-yloxy)-5-propylphenol] | 1 (≈ 4.09 µM) | – | 0.25 (≈ 1.02 µM) | – | IC50 [1]: 0.092 µM |
| CCc1cc(O)c(Oc2cccc(F)n2)cc1F [Example 57] | 4 (≈ 15.9 µM) | – | 0.25 (≈ 0.995 µM) | – | IC50 [1]: 1.1 µM |
| CCc1cc(O)c(Oc2ccc(N)cc2)cc1F [Example 62, 2-(4-aminophenoxy)-5-ethyl-4-fluorophenol] | 4 (≈ 16.2 µM) | – | 0.25 (≈ 1.01 µM) | – | – |
| CCc1ccc(Oc2ccc(S(N)(=O)=O)cc2F)c(O)c1 [Example 65, 4-(4-ethyl-2-hydroxyphenoxy)-3-fluorobenzene sulfonamide] | 1 (≈ 3.21 µM) | – | 0.25 (≈ 0.803 µM) | – | – |
| CCc1ccc(Oc2ccc(NCc3cccnc3)cc2F)c(O)c1 [Example 66, 5-ethyl-2-{2-fluoro-4-[(pyridin-3-ylmethyl)amino]phenoxy}phenol] | 16 (≈ 47.3 µM) | – | 0.25 (≈ 0.739 µM) | – | – |
| CCc1ccc(Oc2ccc(S(=O)(=O)NCCO)cc2F)c(O)c1 [Example 67, 4-(4-ethyl-2-hydroxyphenoxy)-3-fluoro-N-(2-hydroxyethyl)benzenesulfonamide] | 16 (≈ 45 µM) | – | 0.25 (≈ 0.703 µM) | – | – |
| CCc1ccc(Oc2ccc(S(=O)(=O)NCCNC(C)=O)cc2F)c(O)c1 [Example 70, N-{2-[4-(4-Ethyl-2-hydroxy-phenoxy)-3-fluoro-benzenesulfonylamino]-ethyl}-acetamide] | 16 (≈ 40.4 µM) | – | 0.25 (≈ 0.631 µM) | – | – |
| CCc1ccc(Oc2ccc(OCCCC(=O)O)cc2F)c(O)c1 [Example 74, 4-[4-(4-Ethyl-2-hydroxy-phenoxy)-3-fluoro-phenoxy]-butyric acid] | 4 (≈ 12 µM) | 0.062 (≈ 0.185 µM) | 0.062 (≈ 0.185 µM) | 0.062 (≈ 0.185 µM) | – |
| CCc1ccc(Oc2ccc(NCCCNS(C)(=O)=O)cc2F)c(O)c1 [Example 79, N-methanesulfonyl-N-1-[4-(4-ethyl-2-hydroxyphenoxy)-3-fluorophenyl]propan-1,3-diamine] | 16 (≈ 41.8 µM) | 0.25 (≈ 0.654 µM) | 0.25 (≈ 0.654 µM) | 0.25 (≈ 0.654 µM) | – |
| CCc1ccc(Oc2ccc(NCCO)cc2F)c(O)c1 [Example 81, 5-Ethyl-2-[2-fluoro-4-(2-hydroxyethylamino)-phenoxy]phenol] | 4 (≈ 13.7 µM) | – | 0.25 (≈ 0.858 µM) | – | – |
| CCCNc1ccc(Oc2ccc(CC)cc2O)c(F)c1 [Example 82, 5-ethyl-2-[2-fluoro-4-(propylamino)phenoxy]phenol] | 16 (≈ 55.3 µM) | – | 0.25 (≈ 0.864 µM) | – | – |
| CCc1ccc(Oc2ccc(C(C)=O)cc2F)c(OC(=O)CN)c1 [Example 85, acetate hydrochloride] | – | – | – | – | IC50 [1, 4]: 0.11 µM; MIC (E. coli CIP 76.24; CIP76, 20 h): 1 µg/mL; MIC (S. aureus CIP 76.25; CIP76, 20 h): 0.062 µg/mL |
| CCc1ccc(Oc2ccc(C(=O)CCCO)cc2)c(O)c1 [Example 86, 1-[4-(4-ethyl-2-hydroxyphenoxy)phenyl]-4-hydroxy butan-1-one] | 4 (≈ 13.3 µM) | 0.062 (≈ 0.206 µM) | 0.062 (≈ 0.206 µM) | 0.062 (≈ 0.206 µM) | – |
| Oc1cc(Cl)ccc1Oc1ccc(Cl)cc1Cl [Triclosan, 5-chloro-2-(2,4-dichloro-phenoxy)-phenol, reference compound] | – | – | – | – | MIC (E. coli CIP 76.24; CIP76, 20 h): 0.25 µg/mL (≈ 0.863 µM); MIC (S. aureus CIP 76.25; CIP76, 20 h): 0.125 µg/mL (≈ 0.432 µM) |
